Values of other authors, collected in PMC3362725, “An open-label, phase 1 study evaluating safety, tolerability, and pharmacokinetics of linifanib (ABT-869) in Japanese patients with solid tumors” (Cancer Chemotherapy and Pharmacology, 2012).

Set-up: method as in PMID 17634482, PMID 17557949, PMID 21131369
Details: mixed-population TKI phase 1 studies, phase 2 recommended dose levels; cited from earlier work

Row | Compound | patients with Grade 3 hypertension
1 | Cc1cc2c(F)c(Oc3ncnn4cc(OC[C@@H](C)O)c(C)c34)ccc2[nH]1 [brivanib] | 14–20%
2 | CC1(C)CNc2cc(NC(=O)c3cccnc3NCc3ccncc3)ccc21 [motesanib] | 14–20%
